No end group written: not given here.
T1: NPY5 receptor (Homo sapiens, UniProt Q15761)
T1 construct: made in house; host or cells: Sf9 insect cells infected with recombinant baculovirus; purified membranes
T1 sequence (Q15761 with tags, fused parts or gaps): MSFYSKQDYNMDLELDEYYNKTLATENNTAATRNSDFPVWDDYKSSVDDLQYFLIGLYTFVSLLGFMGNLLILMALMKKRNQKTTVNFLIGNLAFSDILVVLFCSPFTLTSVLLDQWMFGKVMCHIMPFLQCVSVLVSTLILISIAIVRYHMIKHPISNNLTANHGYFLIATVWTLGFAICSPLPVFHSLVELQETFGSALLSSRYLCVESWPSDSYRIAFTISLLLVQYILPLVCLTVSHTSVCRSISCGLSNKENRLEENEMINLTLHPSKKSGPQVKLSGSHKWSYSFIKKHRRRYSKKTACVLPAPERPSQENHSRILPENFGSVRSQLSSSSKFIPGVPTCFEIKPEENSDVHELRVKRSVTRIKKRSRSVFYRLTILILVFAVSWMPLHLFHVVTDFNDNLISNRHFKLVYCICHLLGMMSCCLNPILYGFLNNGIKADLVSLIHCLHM

T2: NPY5ΔY1IC3 chimeric receptor (Homo sapiens, UniProt Q15761, DEL238-360/INS235IRLKRRNNMMDKMRDNKY/K361S)
T2 construct: made in house; host or cells: Sf9 insect cells infected with recombinant baculovirus (pBacPAK9 vector); purified membranes
T2 sequence (Q15761 with tags, fused parts or gaps INS235IRLKRRNNMMDKMRDNKY/DEL238-360/K361S): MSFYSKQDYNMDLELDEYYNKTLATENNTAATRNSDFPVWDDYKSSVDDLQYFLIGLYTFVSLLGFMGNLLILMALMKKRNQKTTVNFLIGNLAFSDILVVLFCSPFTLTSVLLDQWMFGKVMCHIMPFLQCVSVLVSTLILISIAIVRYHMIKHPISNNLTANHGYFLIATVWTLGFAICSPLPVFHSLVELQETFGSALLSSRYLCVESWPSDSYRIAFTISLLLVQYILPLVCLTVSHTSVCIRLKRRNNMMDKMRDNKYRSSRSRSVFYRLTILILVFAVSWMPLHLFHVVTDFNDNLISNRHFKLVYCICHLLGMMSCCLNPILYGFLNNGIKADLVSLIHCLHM

T3: NPY5ΔY1CT chimeric receptor (Homo sapiens, UniProt P25929+Q15761)
T3 construct: made in house; host or cells: Sf9 insect cells infected with recombinant baculovirus (pBacPAK9 vector); purified membranes
T3 sequence (Q15761+P25929 with tags, fused parts or gaps): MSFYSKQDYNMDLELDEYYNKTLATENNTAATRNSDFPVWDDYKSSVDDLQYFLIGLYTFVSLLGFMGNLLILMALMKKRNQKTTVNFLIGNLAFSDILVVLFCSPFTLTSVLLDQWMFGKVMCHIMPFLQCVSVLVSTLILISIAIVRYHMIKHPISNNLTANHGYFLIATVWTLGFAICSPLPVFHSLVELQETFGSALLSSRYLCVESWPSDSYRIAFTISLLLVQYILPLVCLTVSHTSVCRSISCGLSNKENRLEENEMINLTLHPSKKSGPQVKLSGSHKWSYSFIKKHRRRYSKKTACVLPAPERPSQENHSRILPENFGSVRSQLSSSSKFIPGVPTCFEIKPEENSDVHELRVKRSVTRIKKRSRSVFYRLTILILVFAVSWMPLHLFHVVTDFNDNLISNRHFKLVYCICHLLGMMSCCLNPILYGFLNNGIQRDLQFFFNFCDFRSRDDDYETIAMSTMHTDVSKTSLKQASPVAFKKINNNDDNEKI

T4: Human NPY5ΔY1CT chimera (human)
T4 construct: Human NPY5 with its C-terminal intracellular domain replaced by that of human Y1; Expressed in Sf9 cells; assayed in purified membranes
T4 chain: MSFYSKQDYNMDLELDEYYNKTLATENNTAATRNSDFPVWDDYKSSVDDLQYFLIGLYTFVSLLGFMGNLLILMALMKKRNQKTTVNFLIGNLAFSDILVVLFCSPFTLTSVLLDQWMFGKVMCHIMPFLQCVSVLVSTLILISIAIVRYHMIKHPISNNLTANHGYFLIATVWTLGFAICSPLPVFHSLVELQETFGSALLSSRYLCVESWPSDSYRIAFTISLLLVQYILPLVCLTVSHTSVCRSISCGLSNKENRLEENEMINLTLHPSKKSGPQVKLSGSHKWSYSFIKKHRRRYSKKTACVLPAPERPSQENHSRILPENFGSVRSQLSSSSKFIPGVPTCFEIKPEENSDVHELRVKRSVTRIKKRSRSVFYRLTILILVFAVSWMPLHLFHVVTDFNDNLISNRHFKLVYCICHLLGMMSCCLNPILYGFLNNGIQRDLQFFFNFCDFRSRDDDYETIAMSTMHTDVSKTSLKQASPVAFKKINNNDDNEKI

T5: Human Y5 receptor (NPY5) (human, UniProt Q15761 1-445)
T5 construct: Full-length receptor expressed by baculovirus in Sf9 insect cells; assayed in purified Sf9 membranes, not on whole cells; also called native NPY5 receptor; hY5
T5 sequence: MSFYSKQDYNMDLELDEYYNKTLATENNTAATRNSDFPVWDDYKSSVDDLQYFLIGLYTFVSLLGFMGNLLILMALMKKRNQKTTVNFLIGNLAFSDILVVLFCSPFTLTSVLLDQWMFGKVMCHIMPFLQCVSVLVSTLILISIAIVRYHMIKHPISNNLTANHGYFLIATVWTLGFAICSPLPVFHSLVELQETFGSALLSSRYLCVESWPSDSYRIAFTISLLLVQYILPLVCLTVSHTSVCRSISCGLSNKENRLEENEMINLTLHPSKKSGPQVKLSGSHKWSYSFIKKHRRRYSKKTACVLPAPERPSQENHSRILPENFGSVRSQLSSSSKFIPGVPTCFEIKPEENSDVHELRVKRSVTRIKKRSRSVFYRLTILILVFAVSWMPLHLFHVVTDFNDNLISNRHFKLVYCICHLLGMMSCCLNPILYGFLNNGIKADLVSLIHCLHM


Experiments:
[1] = target: T1, NPY5 receptor; experiment: [125I]PYY competition binding, Sf9 membranes expressing NPY5; conditions: displacement of 0.050 nM [125I]PYY (porcine)
Protocol: (§1) 72 hours post-infection, a sample of cell suspension was analyzed for viability by trypan blue dye exclusion, and the remaining Sf9 cells were harvested via centrifugation (3000 rpm/10 minutes/4° C.).
(§2) Sf9 cell pellets prepared in Example 3 were resuspended in homogenization buffer (10 mM HEPES, 250 mM sucrose, 0.5 μg/ml leupeptin, 2 μg/ml Aprotinin, 200 μM PMSF, and 2.5 mM EDTA, pH 7.4) and homogenized using a POLYTRON homogenizer (setting 5 for 30 seconds). The homogenate was centrifuged (536×g/10 minutes/4° C.) to pellet the nuclei. The supernatant containing isolated membranes was decanted to a clean centrifuge tube, centrifuged (48,000×g/30 minutes, 4° C.) and resuspended in 30 ml homogenization buffer. This centrifugation and resuspension step was repeated twice. The final pellet was resuspended in ice cold Dulbecco's PBS containing 5 mM EDTA and stored at −80° C. in aliquots until needed. The protein concentration of the resulting membrane preparation was measured using the Bradford protein assay (Bio-Rad Laboratories, Hercules, Calif.).
(§3) Purified P2 membranes, prepared by the method given above in Example 4, were washed with PBS and resuspended by Dounce homogenization (tight pestle) in binding buffer (50 mM Tris-HCl, 5 mM KCl, 120 mM NaCl, 2 mM CaCl2, 1 mM MgCl2, 0.1% BSA, pH 7.4).
(§4) Nonspecific binding was determined in the presence of 1 μM NPY (human, American Peptide Co., Sunnyvale, Calif.) and accounted for less that 10% of total binding. Following a 2-hour incubation at room temperature, the reaction was terminated by rapid vacuum filtration. Samples were filtered over presoaked (in 1.0% polyethyeneimine for 2 hours prior to use) GF/C WHATMAN filters and rinsed 2 times with 5 mLs cold binding buffer without BSA. Remaining bound radioactivity was quantified by gamma counting. Ki and Hill coefficient (“nH”) were determined by fitting the Hill equation to the measured values with the aid of SIGMAPLOT software (SPSS Inc., Chicago).

[2] = target: T2, NPY5ΔY1IC3 chimeric receptor; experiment: [125I]PYY competition binding, Sf9 membranes expressing NPY5ΔY1IC3; conditions: displacement of 0.050 nM [125I]PYY (porcine)
Protocol: as §1, §2, §3, §4

[3] = target: T3, NPY5ΔY1CT chimeric receptor; experiment: [125I]PYY competition binding, Sf9 membranes expressing NPY5ΔY1CT; conditions: displacement of 0.050 nM [125I]PYY (porcine)
Protocol: as §1, §2, §3, §4

[4] = target: T4, Human NPY5ΔY1CT chimera; experiment: displacement of 0.050 nM [125I]PYY (porcine) from Sf9 membranes, filtration
Protocol: (§5) Following a 2-hour incubation at room temperature, the reaction was terminated by rapid vacuum filtration. Samples were filtered over presoaked (in 1.0% polyethyeneimine for 2 hours prior to use) GF/C WHATMAN filters and rinsed 2 times with 5 mLs cold binding buffer without BSA. Remaining bound radioactivity was quantified by gamma counting. Kᵢ and Hill coefficient (“nH”) were determined by fitting the Hill equation to the measured values with the aid of SIGMAPLOT software (SPSS Inc., Chicago).

[5] = target: T5, Human Y5 receptor (NPY5); experiment: as above
Protocol: as §5

Ki [4] [nM] | Ki [5] [nM] | Molecule | nH (Hill coefficient) [1] | nH (Hill coefficient) [2] | nH (Hill coefficient) [3]
– | – | human D-Trp 32 NPY | 0.7 | 0.8 | 0.9
– | – | human NPY 1-36 [HNPY 1-36] | 0.7 | 1.0 | 0.7
– | – | human NPY 3-36 [HNPY 3-36] | 0.7 | 1.2 | 0.6
– | – | human NPY 13-36 [HNPY 13-36] | 0.7 | 1.0 | 0.5
0.31 | – | APLEPVYPGDNATPEQMAQYAADLRRYINMLTRPRY (peptide, UniProt P01298 30-65, looked up, also called hPP; HPP) [human pancreatic polypeptide] | – | – | –
– | 20 | PAEDMARYYSALRHYINLITRQRY (peptide, UniProt P01303 41-64, looked up, ends and bridges not checked, range 13-36; also called HNPY 13-36) [human NPY 13-36] | – | – | –
